According to ChEMBL document CHEMBL1201862, “PubChem BioAssay data set” (2004):
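Compound exposure: 48 hours, 5 concentrations, 96-well plates. GI50 marks 50% less growth.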 Activity calls are given as the source filed them. Rule as the data show it: active = GI50 up to about 1.1 µM and inactive = higher.

Assays:
Experiment in all cases: NCI tumour cell line growth inhibition, 48 h
DLD-1 = test system: DLD-1
OVCAR-3 = test system: OVCAR-3
A498 = test system: A498
SNB-75 = test system: SNB-75
MOLT-4 = test system: MOLT-4
U-251 = test system: U-251
NCI/ADR-RES = test system: NCI/ADR-RES
HCT-116 = test system: HCT-116
SW-620 = test system: SW-620
IGROV-1 = test system: IGROV-1
SF-539 = test system: SF-539
HOP-62 = test system: HOP-62
KM12 = test system: KM12
A549 = test system: A549
SK-MEL-2 = test system: SK-MEL-2
RPMI-8226 = test system: RPMI-8226
SK-MEL-5 = test system: SK-MEL-5
NCI-H23 = test system: NCI-H23
K562 = test system: K562
NCI-H226 = test system: NCI-H226
COLO 205 = test system: COLO 205
XF498 = test system: XF498
HOP-18 = test system: HOP-18
EKVX = test system: EKVX
UACC-257 = test system: UACC-257
LOX IMVI = test system: LOX IMVI
HT-29 = test system: HT-29
OVCAR-8 = test system: OVCAR-8
SN12C = test system: SN12C
SK-MEL-28 = test system: SK-MEL-28
M19-MEL = test system: M19-MEL
HOP-92 = test system: HOP-92
SF-295 = test system: SF-295
HCT-15 = test system: HCT-15
UACC-62 = test system: UACC-62
NCI-H460 = test system: NCI-H460
DMS-114 = test system: DMS-114
OVCAR-4 = test system: OVCAR-4
NCI-H522 = test system: NCI-H522
HL-60 = test system: HL-60
SF-268 = test system: SF-268
HCC 2998 = test system: HCC 2998
CCRF-CEM = test system: CCRF-CEM
OVCAR-5 = test system: OVCAR-5
UO-31 = test system: UO-31
CAKI-1 = test system: CAKI-1
DMS-273 = test system: DMS-273
MCF7 = test system: MCF7
SNB-19 = test system: SNB-19
SK-OV-3 = test system: SK-OV-3
KM-20L2 = test system: KM-20L2
RXF 393 = test system: RXF 393
Malme-3M = test system: Malme-3M
SNB-78 = test system: SNB-78

For `O=C(NCCCl)O/N=C/c1cccnc1`, which GI50 (DLD-1) is on record?
The GI50 was > 100 µM (inactive).

And the GI50 (OVCAR-3)?
The GI50 was > 100 µM (inactive).

And the GI50 (A498)?
The GI50 was > 100 µM (inactive).

What about the GI50 (SNB-75) of the same compound?
Its GI50 is 61 µM (inactive).

What about the GI50 (MOLT-4) of the same compound?
Its GI50 is > 100 µM (inactive).

And the GI50 (U-251)?
Its GI50 is > 100 µM (inactive).

What about the GI50 (NCI/ADR-RES) of the same compound?
Its GI50 is > 100 µM (inactive).

And the GI50 (HCT-116)?
The GI50 was > 100 µM (inactive).

And the GI50 (SW-620)?
Its GI50 is > 100 µM (inactive).

What about the GI50 (IGROV-1) of the same compound?
The GI50 was > 100 µM (inactive).

And the GI50 (SF-539)?
Its GI50 is > 100 µM (inactive).

What about the GI50 (HOP-62) of the same compound?
The GI50 was > 100 µM (inactive).

What about the GI50 (KM12) of the same compound?
The GI50 was > 100 µM (inactive).

What about the GI50 (A549) of the same compound?
Its GI50 is > 100 µM (inactive).

And the GI50 (SK-MEL-2)?
Its GI50 is > 100 µM (inactive).

What about the GI50 (RPMI-8226) of the same compound?
The GI50 was > 100 µM (inactive).

What about the GI50 (SK-MEL-5) of the same compound?
The GI50 was > 100 µM (inactive).

And the GI50 (NCI-H23)?
The GI50 was > 100 µM (inactive).

What about the GI50 (K562) of the same compound?
The GI50 was > 100 µM (inactive).

And the GI50 (NCI-H226)?
The GI50 was > 100 µM (inactive).

What about the GI50 (COLO 205) of the same compound?
The GI50 was > 100 µM (inactive).

And the GI50 (XF498)?
Its GI50 is > 100 µM (inactive).

And the GI50 (HOP-18)?
The GI50 was > 100 µM (inactive).

And the GI50 (EKVX)?
Its GI50 is > 100 µM (inactive).

And the GI50 (UACC-257)?
The GI50 was > 100 µM (inactive).

What about the GI50 (LOX IMVI) of the same compound?
The GI50 was > 100 µM (inactive).

And the GI50 (HT-29)?
Its GI50 is > 100 µM (inactive).

And the GI50 (OVCAR-8)?
Its GI50 is > 100 µM (inactive).

What about the GI50 (SN12C) of the same compound?
Its GI50 is > 100 µM (inactive).

And the GI50 (SK-MEL-28)?
Its GI50 is > 100 µM (inactive).

And the GI50 (M19-MEL)?
The GI50 was > 100 µM (inactive).

What about the GI50 (HOP-92) of the same compound?
Its GI50 is > 100 µM (inactive).

What about the GI50 (SF-295) of the same compound?
Its GI50 is > 100 µM (inactive).

What about the GI50 (HCT-15) of the same compound?
Its GI50 is over 100 µM.

And the GI50 (UACC-62)?
The GI50 was > 100 µM (inactive).

What about the GI50 (NCI-H460) of the same compound?
Its GI50 is > 100 µM (inactive).

What about the GI50 (DMS-114) of the same compound?
The GI50 was > 100 µM (inactive).

What about the GI50 (OVCAR-4) of the same compound?
Its GI50 is > 100 µM (inactive).

What about the GI50 (NCI-H522) of the same compound?
Its GI50 is > 100 µM (inactive).

And the GI50 (HL-60)?
Its GI50 is > 100 µM (inactive).

And the GI50 (SF-268)?
The GI50 was > 100 µM (inactive).

What about the GI50 (HCC 2998) of the same compound?
Its GI50 is > 100 µM (inactive).

What about the GI50 (CCRF-CEM) of the same compound?
The GI50 was > 100 µM (inactive).

And the GI50 (OVCAR-5)?
Its GI50 is > 100 µM (inactive).

What about the GI50 (UO-31) of the same compound?
The GI50 was > 100 µM (inactive).

And the GI50 (CAKI-1)?
Its GI50 is > 100 µM (inactive).

And the GI50 (DMS-273)?
The GI50 was > 100 µM (inactive).

And the GI50 (MCF7)?
Its GI50 is > 100 µM (inactive).

What about the GI50 (SNB-19) of the same compound?
Its GI50 is > 100 µM (inactive).

What about the GI50 (SK-OV-3) of the same compound?
Its GI50 is > 100 µM (inactive).

For `CC(C)CCCC(C)[C@H]1CCC(C2C[C@@H](O)[C@@H]3CC(O)[C@@H](O)C[C@]3(CO)C2=O)[C@]1(C)CCO` (some centres not stated), which GI50 (DLD-1) is on record?
Its GI50 is 31.7 µM (inactive).

What about the GI50 (OVCAR-3) of the same compound?
The GI50 was 21.4 µM (inactive).

What about the GI50 (A498) of the same compound?
Its GI50 is 25.6 µM (inactive).

What about the GI50 (SNB-75) of the same compound?
The GI50 was 20.4 µM (inactive).

What about the GI50 (MOLT-4) of the same compound?
The GI50 was 0.491 µM (active).

What about the GI50 (U-251) of the same compound?
Its GI50 is 19.4 µM (inactive).

And the GI50 (NCI/ADR-RES)?
Its GI50 is 37.6 µM (inactive).

And the GI50 (HCT-116)?
The GI50 was 20 µM (inactive).

What about the GI50 (SW-620) of the same compound?
Its GI50 is 23.4 µM (inactive).

What about the GI50 (IGROV-1) of the same compound?
Its GI50 is 23.3 µM (inactive).

And the GI50 (SF-539)?
The GI50 was 20.9 µM (inactive).

And the GI50 (HOP-62)?
Its GI50 is 23.9 µM (inactive).

And the GI50 (KM12)?
Its GI50 is 14.3 µM (inactive).

What about the GI50 (A549) of the same compound?
Its GI50 is 34 µM (inactive).

And the GI50 (SK-MEL-2)?
Its GI50 is 22.3 µM (inactive).

And the GI50 (RPMI-8226)?
Its GI50 is 27.1 µM (inactive).

And the GI50 (SK-MEL-5)?
Its GI50 is 14.2 µM (inactive).

What about the GI50 (KM-20L2) of the same compound?
Its GI50 is 20 µM (inactive).

What about the GI50 (RXF 393) of the same compound?
Its GI50 is 24.9 µM (inactive).

What about the GI50 (NCI-H23) of the same compound?
Its GI50 is 36.1 µM (inactive).

What about the GI50 (K562) of the same compound?
The GI50 was 24.4 µM (inactive).

And the GI50 (Malme-3M)?
Its GI50 is 23.1 µM (inactive).

What about the GI50 (NCI-H226) of the same compound?
The GI50 was 30.7 µM (inactive).

What about the GI50 (COLO 205) of the same compound?
The GI50 was 20 µM (inactive).

And the GI50 (XF498)?
The GI50 was > 42.9 µM (inactive).

What about the GI50 (HOP-18) of the same compound?
The GI50 was 23.7 µM (inactive).

And the GI50 (EKVX)?
The GI50 was > 57.8 µM (inactive).

What about the GI50 (UACC-257) of the same compound?
The GI50 was 20 µM (inactive).

What about the GI50 (LOX IMVI) of the same compound?
The GI50 was 20.9 µM (inactive).

What about the GI50 (HT-29) of the same compound?
The GI50 was 19.5 µM (inactive).

And the GI50 (OVCAR-8)?
Its GI50 is > 50.1 µM (inactive).

And the GI50 (SN12C)?
Its GI50 is 30.2 µM (inactive).

What about the GI50 (SK-MEL-28) of the same compound?
Its GI50 is 21.8 µM (inactive).

What about the GI50 (M19-MEL) of the same compound?
The GI50 was 21 µM (inactive).

And the GI50 (SNB-78)?
Its GI50 is 32.7 µM (inactive).

And the GI50 (SF-295)?
Its GI50 is 20.4 µM (inactive).

What about the GI50 (HCT-15) of the same compound?
Its GI50 is 28.8 µM.

What about the GI50 (UACC-62) of the same compound?
The GI50 was 19.2 µM (inactive).

And the GI50 (NCI-H460)?
The GI50 was 21.8 µM (inactive).

What about the GI50 (DMS-114) of the same compound?
Its GI50 is 20.6 µM (inactive).

And the GI50 (OVCAR-4)?
Its GI50 is 30.6 µM (inactive).

What about the GI50 (NCI-H522) of the same compound?
The GI50 was 26.3 µM (inactive).

What about the GI50 (HL-60) of the same compound?
Its GI50 is 16.1 µM (inactive).

What about the GI50 (SF-268) of the same compound?
The GI50 was 25 µM (inactive).

And the GI50 (HCC 2998)?
The GI50 was 21.2 µM (inactive).

What about the GI50 (CCRF-CEM) of the same compound?
The GI50 was 17 µM (inactive).

What about the GI50 (OVCAR-5) of the same compound?
Its GI50 is 23.2 µM (inactive).

And the GI50 (UO-31)?
Its GI50 is 23 µM (inactive).

What about the GI50 (DMS-273) of the same compound?
The GI50 was 32.3 µM (inactive).

What about the GI50 (MCF7) of the same compound?
Its GI50 is 14.2 µM (inactive).

What about the GI50 (SNB-19) of the same compound?
Its GI50 is 28.4 µM (inactive).

What about the GI50 (SK-OV-3) of the same compound?
The GI50 was 25.8 µM (inactive).
